# Test results: PMC2928817 (PLoS Pathogens, 2010)
# What was measured:
# [1] = test system: A/Vietnam/HN32060/2009 (VN32060r); parameters: species or system 2009 pandemic influenza A (H1N1) virus; conditions: in vivo
# [2] = test system: A/Vietnam/HCM9727/2009 (VN9727s); parameters: species or system 2009 pandemic influenza A (H1N1) virus; conditions: in vivo
# [3] = test system: A/Osaka/164/2009 (O164s); parameters: species or system 2009 pandemic influenza A (H1N1) virus; conditions: in vivo
# [4] = test system: A/Osaka/180/2009 (O180r); parameters: species or system 2009 pandemic influenza A (H1N1) virus; conditions: in vivo
# [5] = test system: A/Osaka/180/2009 (O180r); assay type: cell-based, 2009 pandemic influenza A (H1N1) virus
# [6] = test system: A/Vietnam/HCM9727/2009 (VN9727s); assay type: cell-based, 2009 pandemic influenza A (H1N1) virus
# [7] = test system: A/Osaka/164/2009 (O164s); assay type: cell-based, 2009 pandemic influenza A (H1N1) virus
# [8] = test system: A/Vietnam/HN32060/2009 (VN32060r); assay type: cell-based, 2009 pandemic influenza A (H1N1) virus
Structure (SMILES),replication of VN32060r in the lungs of mice [1],replication of VN9727s in the lungs of mice [2],replication of O164s in the lungs of mice [3],replication of O180r in the lungs of mice [4],virus titers of VN9727s in the lungs of mice [2],virus titers of O164s in the lungs of mice [3],growth of O180r in the presence of NA inhibitor [5],growth of VN9727s in the presence of NA inhibitor [6],growth of O164s in the presence of NA inhibitor [7],growth of VN32060r in the presence of NA inhibitor [8]
[H]/N=C(\N)N[C@H]1C=C(C(=O)O)O[C@@H]([C@H](OC)[C@H](O)COC(=O)CCCCCCC)[C@@H]1NC(C)=O [CS-8958],significantly reduced,significantly reduced,significantly reduced,significantly reduced,–,–,–,–,–,–
"CCOC(=O)C1=C[C@@H](OC(CC)CC)[C@H](NC(C)=O)[C@@H](N)C1 [oseltamivir, oseltamivir phosphate]",not inhibited,–,–,not inhibited,significantly reduced,significantly reduced,–,–,–,–
"NC(=O)c1nc(F)c[nH]c1=O [favipiravir, Favipiravir]",significantly reduced,significantly reduced,significantly reduced,significantly reduced,–,–,–,–,–,–
CC(=O)N[C@H]1[C@H]([C@H](O)[C@H](O)CO)OC(C(=O)O)=C[C@@H]1N=C(N)N [Zanamivir],–,–,–,–,–,–,inhibited the replication,inhibited the replication,inhibited the replication,inhibited the replication
CCC(CC)O[C@@H]1C=C(C(=O)O)C[C@H](N)[C@H]1NC(C)=O [Oseltamivir carboxylate],–,–,–,–,–,–,replicated efficiently,severely impaired,severely impaired,replicated efficiently
